Experimental data reported in ChEMBL document CHEMBL1201862, “PubChem BioAssay data set” (2004).
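All cell lines were grown in 96-well plates and treated with compound for 48 hours. GI50: concentration for 50% inhibition of growth.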 Calls of active or inactive are those of the source. No stated cut-off is given here; in the data, active = GI50 up to about 1.1 µM and inactive = higher. Square brackets hold non-standard residues; d marks the D form. Peptide text beside a SMILES is read from it. * marks the point of attachment. Bn2Val = CC(C)[C@@H](C(=O)*)N(Cc1ccccc1)Cc1ccccc1; NH(3,4-diMeO-benzyl) = COc1ccc(CN*)cc1OC; NMeV = CN[C@H](C(=O)O)C(C)C; dNMeA = CN[C@H](C)C(=O)O

Assays:
Test in all cases: NCI tumour cell line growth inhibition, 48 h
[1] = test system: SN12C
[2] = test system: HOP-92
[3] = test system: T47D
[4] = test system: Malme-3M
[5] = test system: HCC 2998
[6] = test system: SK-OV-3
[7] = test system: RXF 393
[8] = test system: NCI/ADR-RES
[9] = test system: IGROV-1
[10] = test system: LOX IMVI
[11] = test system: MCF7
[12] = test system: 786-0
[13] = test system: SF-268
[14] = test system: SK-MEL-28
[15] = test system: NCI-H226
[16] = test system: SW-620
[17] = test system: CCRF-CEM
[18] = test system: NCI-H460
[19] = test system: OVCAR-5
[20] = test system: NCI-H23

| SMILES | GI50 [1] | GI50 [2] | GI50 [3] | GI50 [4] | GI50 [5] | GI50 [6] | GI50 [7] | GI50 [8] | GI50 [9] | GI50 [10] | GI50 [11] | GI50 [12] | GI50 [13] | GI50 [14] | GI50 [15] | GI50 [16] | GI50 [17] | GI50 [18] | GI50 [19] | GI50 [20] |
| --- | --- | --- | --- | --- | --- | --- | --- | --- | --- | --- | --- | --- | --- | --- | --- | --- | --- | --- | --- | --- |
| COc1cc(C2c3cc4c(cc3OC3(OC)COC(=O)C23)OCO4)cc(OC)c1OC(C)=O (stereo not given) | 3.93 µM (inactive) | 51.2 µM (inactive) | > 100 µM (inactive) | > 100 µM (inactive) | 2.75 µM (inactive) | 1.66 µM (inactive) | 0.499 µM (active) | 0.323 µM (active) | 2.21 µM (inactive) | 0.656 µM (active) | 1.07 µM (active) | 1.21 µM (inactive) | 6.75 µM (inactive) | 2.27 µM (inactive) | 1.13 µM (inactive) | 0.552 µM (active) | 2.24 µM (inactive) | 0.705 µM (active) | 4.6 µM (inactive) | 3.27 µM (inactive) |
| C=C1C(C)C2C(Cc3ccccc3)NC(=O)C23C(OC(C)=O)/C=C/C(C)(O)CC(C)C/C=C/C3C1O (stereo not given) | 44.3 µM (inactive) | 0.154 µM (active) | > 100 µM (inactive) | 28.4 µM (inactive) | 16.1 µM (inactive) | 0.242 µM (active) | 0.0394 µM (active) | 57 µM (inactive) | 1.32 µM (inactive) | 0.0593 µM (active) | 6.56 µM (inactive) | 0.632 µM (active) | 0.519 µM (active) | 3.94 µM (inactive) | 0.728 µM (active) | 90.6 µM (inactive) | 1.03 µM (active) | 0.29 µM (active) | 70.6 µM (inactive) | 13.8 µM (inactive) |
| COc1ccc(CCN2COc3ccc4ccc(=O)oc4c3C2)cc1OC | > 100 µM (inactive) | 21 µM (inactive) | > 100 µM (inactive) | > 100 µM (inactive) | > 100 µM (inactive) | > 100 µM (inactive) | 85.7 µM (inactive) | > 100 µM (inactive) | > 100 µM (inactive) | 20.9 µM (inactive) | 89.5 µM (inactive) | > 100 µM (inactive) | 60.4 µM (inactive) | > 100 µM (inactive) | > 100 µM (inactive) | 24.2 µM (inactive) | 23.7 µM (inactive) | 66.8 µM (inactive) | > 100 µM (inactive) | > 100 µM (inactive) |
| c1cc(-c2ccc(-c3nc4ccc(C5=NCCN5)cc4s3)s2)ccc1C1=NCCN1 | 0.172 µM (active) | 0.299 µM (active) | 0.483 µM (active) | 1.02 µM (active) | 0.0292 µM (active) | 0.711 µM (active) | 0.152 µM (active) | 5.53 µM (inactive) | 0.313 µM (active) | 0.262 µM (active) | 0.0372 µM (active) | 0.156 µM (active) | 0.214 µM (active) | 1.71 µM (inactive) | 0.308 µM (active) | 1.02 µM (active) | 0.0962 µM (active) | 0.286 µM (active) | 0.444 µM (active) | 0.813 µM (active) |
| CC1(C)COC2=C(C1)C(=O)c1ccccc1C2=O | 1.36 µM (inactive) | 2.3 µM (inactive) | 0.558 µM (active) | 1.88 µM (inactive) | 1.7 µM (inactive) | 1.88 µM (inactive) | 2.02 µM (inactive) | 0.452 µM (active) | 1.65 µM (inactive) | 1.88 µM (inactive) | 1.21 µM (inactive) | 1.84 µM (inactive) | 1.65 µM (inactive) | 1.64 µM (inactive) | 2.24 µM (inactive) | 1.69 µM (inactive) | 2.37 µM (inactive) | 1.91 µM (inactive) | 1.69 µM (inactive) | 1.54 µM (inactive) |
| COc1ccc(CNC(=O)[C@@H](C)N(C)C(=O)[C@@H]2CCCN2C(=O)[C@H](C(C)C)N(C)C(=O)[C@@H](NC(=O)[C@H](C(C)C)N(Cc2ccccc2)Cc2ccccc2)C(C)C)cc1OC (Bn2Val-V[NMeV]P[dNMeA]-{NH(3,4-diMeO-benzyl)}) | 8.13 µM (inactive) | 7.4 µM (inactive) | 7.43 µM (inactive) | 8.67 µM (inactive) | 7.1 µM (inactive) | 12.8 µM (inactive) | 5.61 µM (inactive) | 7.19 µM (inactive) | 5.14 µM (inactive) | 7.76 µM (inactive) | 4.33 µM (inactive) | 8.97 µM (inactive) | 6.41 µM (inactive) | 8.34 µM (inactive) | 6.58 µM (inactive) | 10.1 µM (inactive) | 2.23 µM (inactive) | 9.73 µM (inactive) | 8.2 µM (inactive) | 10.5 µM (inactive) |
| C[C@@H]1CC[C@@]2(C)[C@H](C)/C(=C\COC(=O)/C=C/c3ccc(O)c(O)c3)CC[C@@]12C [NAVICULYL CAFFEATE] | 4.55 µM (inactive) | 14.1 µM (inactive) | 12.6 µM (inactive) | 14 µM (inactive) | 7.67 µM (inactive) | 12.4 µM (inactive) | 15.7 µM (inactive) | 7.8 µM (inactive) | 7.31 µM (inactive) | 6.01 µM (inactive) | 2.83 µM (inactive) | 4.37 µM (inactive) | 9.84 µM (inactive) | 10.8 µM (inactive) | 6.05 µM (inactive) | 4.95 µM (inactive) | 1.11 µM (active) | 3.57 µM (inactive) | 18 µM (inactive) | 9.23 µM (inactive) |
